Measured values taken from ChEMBL document CHEMBL3885881, “DrugMatrix”.

Species: Rattus norvegicus
Assay: DrugMatrix - Regimen: Daily Repeat
Format: toxicity, organism-based, Sprague-Dawley
Parameters: regimen Daily Repeat, gender Male, age 6-8 weeks
Conditions: in vivo, po, route oral GAVAGE, vehicle .5 % CMC; for ABSOLUTE BASOPHIL / ABSOLUTE EOSINOPHIL / ABSOLUTE LYMPHOCYTE / ABSOLUTE MONOCYTE / ABSOLUTE SEGMENTED NEUTROPHIL / BASOPHIL / EOSINOPHIL / HEMATOCRIT / HEMOGLOBIN / LEUKOCYTE COUNT / LYMPHOCYTE / MEAN CORPUSCULAR HEMOGLOBIN / MEAN CORPUSCULAR HEMOGLOBIN CONCENTRATION / MEAN CORPUSCULAR VOLUME / MONOCYTE / NEUTROPHIL / NUCLEATED RED BLOOD CELLS / PLATELET COUNT: tissue Blood; for ALANINE AMINOTRANSFERASE / ALBUMIN / ALKALINE PHOSPHATASE / ASPARTATE AMINOTRANSFERASE / BLOOD UREA NITROGEN / CARBON DIOXIDE / CHLORIDE / CHOLESTEROL / CREATINE PHOSPHOKINASE / CREATININE / GLUCOSE / LACTATE DEHYDROGENASE / LIPASE / PHOSPHORUS / POTASSIUM / SODIUM / TOTAL BILIRUBIN / TOTAL PROTEIN / URIC ACID: tissue Plasma
[1] = 150 mg/kg, 72 h, dose level Low, time 3 day
[2] = 150 mg/kg, 120 h, dose level Low, time 5 day
[3] = 1500 mg/kg, 72 h, dose level High, time 3 day
[4] = 1500 mg/kg, 120 h, dose level High, time 5 day

CC(C)(C)NCC(O)COc1cccc2c1CC(O)C(O)C2 (stereo not drawn) [NADOLOL]
ABSOLUTE BASOPHIL [1]: 0 CELLS/uL
ABSOLUTE EOSINOPHIL [1]: 43.33 CELLS/uL
ABSOLUTE LYMPHOCYTE [1]: 11948.67 CELLS/uL
ABSOLUTE MONOCYTE [1]: 0 CELLS/uL
ABSOLUTE SEGMENTED NEUTROPHIL [1]: 1241.33 CELLS/uL
BASOPHIL [1]: 0%
EOSINOPHIL [1]: 0.33%
HEMATOCRIT [1]: 34.8%
HEMOGLOBIN [1]: 13.13 G/DL
LEUKOCYTE COUNT [1]: 13.23 x10E3/uL
LYMPHOCYTE [1]: 90.33%
MEAN CORPUSCULAR HEMOGLOBIN [1]: 24.5 pg
MEAN CORPUSCULAR HEMOGLOBIN CONCENTRATION [1]: 37.73 G/DL
MEAN CORPUSCULAR VOLUME [1]: 64.87 fL
MONOCYTE [1]: 0%
NEUTROPHIL [1]: 9.33%
NUCLEATED RED BLOOD CELLS [1]: 0 /100WBC
PLATELET COUNT [1]: 1238.33 x10E3/uL
ALANINE AMINOTRANSFERASE [1]: 44 u/L
ALBUMIN [1]: 4.17 G/DL
ALKALINE PHOSPHATASE [1]: 391.33 u/L
ASPARTATE AMINOTRANSFERASE [1]: 75.33 u/L
BLOOD UREA NITROGEN [1]: 17 mg/dL
CARBON DIOXIDE [1]: 24.67 mmol/L
CHLORIDE [1]: 104 MEQ/L
CHOLESTEROL [1]: 82.33 mg/dL
CREATINE PHOSPHOKINASE [1]: 224 u/L
CREATININE [1]: 0.22 mg/dL
GLUCOSE [1]: 176.33 mg/dL
LACTATE DEHYDROGENASE [1]: 97 u/L
LIPASE [1]: 8 u/L
PHOSPHORUS [1]: 14.9 mg/dL
POTASSIUM [1]: 6.65 MEQ/L
SODIUM [1]: 146.1 MEQ/L
TOTAL BILIRUBIN [1]: 0.23 mg/dL
TOTAL PROTEIN [1]: 6.1 G/DL
URIC ACID [1]: 2 mg/dL
ABSOLUTE BASOPHIL [2]: 0 CELLS/uL
ABSOLUTE EOSINOPHIL [2]: 50.33 CELLS/uL
ABSOLUTE LYMPHOCYTE [2]: 8337.33 CELLS/uL
ABSOLUTE MONOCYTE [2]: 0 CELLS/uL
ABSOLUTE SEGMENTED NEUTROPHIL [2]: 679 CELLS/uL
BASOPHIL [2]: 0%
EOSINOPHIL [2]: 0.67%
HEMATOCRIT [2]: 35.83%
HEMOGLOBIN [2]: 13.37 G/DL
LEUKOCYTE COUNT [2]: 9.07 x10E3/uL
LYMPHOCYTE [2]: 91.67%
MEAN CORPUSCULAR HEMOGLOBIN [2]: 24.27 pg
MEAN CORPUSCULAR HEMOGLOBIN CONCENTRATION [2]: 37.37 G/DL
MEAN CORPUSCULAR VOLUME [2]: 64.93 fL
MONOCYTE [2]: 0%
NEUTROPHIL [2]: 7.67%
NUCLEATED RED BLOOD CELLS [2]: 0 /100WBC
PLATELET COUNT [2]: 1254.33 x10E3/uL
ALANINE AMINOTRANSFERASE [2]: 46.33 u/L
ALBUMIN [2]: 4.17 G/DL
ALKALINE PHOSPHATASE [2]: 380.67 u/L
ASPARTATE AMINOTRANSFERASE [2]: 77.67 u/L
BLOOD UREA NITROGEN [2]: 14.67 mg/dL
CARBON DIOXIDE [2]: 29.67 mmol/L
CHLORIDE [2]: 101 MEQ/L
CHOLESTEROL [2]: 84.67 mg/dL
CREATINE PHOSPHOKINASE [2]: 179 u/L
CREATININE [2]: 0.19 mg/dL
GLUCOSE [2]: 140.33 mg/dL
LACTATE DEHYDROGENASE [2]: 101 u/L
LIPASE [2]: 8.67 u/L
PHOSPHORUS [2]: 10.8 mg/dL
POTASSIUM [2]: 6.14 MEQ/L
SODIUM [2]: 147.83 MEQ/L
TOTAL BILIRUBIN [2]: 0.27 mg/dL
TOTAL PROTEIN [2]: 5.93 G/DL
URIC ACID [2]: 0.8 mg/dL
ABSOLUTE BASOPHIL [3]: 0 CELLS/uL
ABSOLUTE EOSINOPHIL [3]: 179 CELLS/uL
ABSOLUTE LYMPHOCYTE [3]: 10744.33 CELLS/uL
ABSOLUTE MONOCYTE [3]: 0 CELLS/uL
ABSOLUTE SEGMENTED NEUTROPHIL [3]: 1443.33 CELLS/uL
BASOPHIL [3]: 0%
EOSINOPHIL [3]: 1.33%
HEMATOCRIT [3]: 32.37%
HEMOGLOBIN [3]: 12.3 G/DL
LEUKOCYTE COUNT [3]: 12.37 x10E3/uL
LYMPHOCYTE [3]: 87.67%
MEAN CORPUSCULAR HEMOGLOBIN [3]: 24.6 pg
MEAN CORPUSCULAR HEMOGLOBIN CONCENTRATION [3]: 38 G/DL
MEAN CORPUSCULAR VOLUME [3]: 64.77 fL
MONOCYTE [3]: 0%
NEUTROPHIL [3]: 11%
NUCLEATED RED BLOOD CELLS [3]: 0 /100WBC
PLATELET COUNT [3]: 1241.33 x10E3/uL
ALANINE AMINOTRANSFERASE [3]: 51.33 u/L
ALBUMIN [3]: 3.9 G/DL
ALKALINE PHOSPHATASE [3]: 378.33 u/L
ASPARTATE AMINOTRANSFERASE [3]: 79.33 u/L
BLOOD UREA NITROGEN [3]: 16 mg/dL
CARBON DIOXIDE [3]: 24.67 mmol/L
CHLORIDE [3]: 109.33 MEQ/L
CHOLESTEROL [3]: 85 mg/dL
CREATINE PHOSPHOKINASE [3]: 126 u/L
CREATININE [3]: 0.15 mg/dL
GLUCOSE [3]: 170 mg/dL
LACTATE DEHYDROGENASE [3]: 86.33 u/L
LIPASE [3]: 8 u/L
PHOSPHORUS [3]: 14.57 mg/dL
POTASSIUM [3]: 7.08 MEQ/L
SODIUM [3]: 148.37 MEQ/L
TOTAL BILIRUBIN [3]: 0.17 mg/dL
TOTAL PROTEIN [3]: 5.63 G/DL
URIC ACID [3]: 2.2 mg/dL
ABSOLUTE BASOPHIL [4]: 0 CELLS/uL
ABSOLUTE EOSINOPHIL [4]: 191.67 CELLS/uL
ABSOLUTE LYMPHOCYTE [4]: 13307.33 CELLS/uL
ABSOLUTE MONOCYTE [4]: 0 CELLS/uL
ABSOLUTE SEGMENTED NEUTROPHIL [4]: 867.67 CELLS/uL
BASOPHIL [4]: 0%
EOSINOPHIL [4]: 1.33%
HEMATOCRIT [4]: 33.3%
HEMOGLOBIN [4]: 12.53 G/DL
LEUKOCYTE COUNT [4]: 14.37 x10E3/uL
LYMPHOCYTE [4]: 92.67%
MEAN CORPUSCULAR HEMOGLOBIN [4]: 23.37 pg
MEAN CORPUSCULAR HEMOGLOBIN CONCENTRATION [4]: 37.67 G/DL
MEAN CORPUSCULAR VOLUME [4]: 62.2 fL
MONOCYTE [4]: 0%
NEUTROPHIL [4]: 6%
NUCLEATED RED BLOOD CELLS [4]: 0 /100WBC
PLATELET COUNT [4]: 1258.33 x10E3/uL
ALANINE AMINOTRANSFERASE [4]: 44.67 u/L
ALBUMIN [4]: 3.9 G/DL
ALKALINE PHOSPHATASE [4]: 343 u/L
ASPARTATE AMINOTRANSFERASE [4]: 80 u/L
BLOOD UREA NITROGEN [4]: 16.33 mg/dL
CARBON DIOXIDE [4]: 25.33 mmol/L
CHLORIDE [4]: 103.67 MEQ/L
CHOLESTEROL [4]: 74 mg/dL
CREATINE PHOSPHOKINASE [4]: 262 u/L
CREATININE [4]: 0.21 mg/dL
GLUCOSE [4]: 152.33 mg/dL
LACTATE DEHYDROGENASE [4]: 268.33 u/L
LIPASE [4]: 8 u/L
PHOSPHORUS [4]: 13 mg/dL
POTASSIUM [4]: 6.63 MEQ/L
SODIUM [4]: 146.2 MEQ/L
TOTAL BILIRUBIN [4]: 0.13 mg/dL
TOTAL PROTEIN [4]: 5.7 G/DL
URIC ACID [4]: 1.47 mg/dL
